Source: ChEMBL document CHEMBL1201862, “PubChem BioAssay data set” (2004)
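Dose response: 5 concentrations. Exposure: 48 h. Format: 96-well plates. Endpoint: linear interpolation; highest concentration if not reached. Here, GI50 denotes the concentration required for 50% inhibition of growth.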 Calls of active or inactive are those of the source. No stated cut-off is given here; in the data, active = GI50 up to about 1.1 µM and inactive = higher.

Columns and labels:
Assay in all cases: growth of human tumour cells (NCI), 48 h
UACC-62 = test system: UACC-62
OVCAR-8 = test system: OVCAR-8
COLO 205 = test system: COLO 205
DU-145 = test system: DU-145
SW-620 = test system: SW-620
MDA-MB-231 = test system: MDA-MB-231
MOLT-4 = test system: MOLT-4
HCC 2998 = test system: HCC 2998
NCI/ADR-RES = test system: NCI/ADR-RES
A549 = test system: A549
RPMI-8226 = test system: RPMI-8226
SF-539 = test system: SF-539
KM12 = test system: KM12
SK-MEL-28 = test system: SK-MEL-28
BT-549 = test system: BT-549
UO-31 = test system: UO-31
HCT-15 = test system: HCT-15
A498 = test system: A498
NCI-H23 = test system: NCI-H23
Hs-578T = test system: Hs-578T

| Structure (SMILES) | GI50 (UACC-62) | GI50 (OVCAR-8) | GI50 (COLO 205) | GI50 (DU-145) | GI50 (SW-620) | GI50 (MDA-MB-231) | GI50 (MOLT-4) | GI50 (HCC 2998) | GI50 (NCI/ADR-RES) | GI50 (A549) | GI50 (RPMI-8226) | GI50 (SF-539) | GI50 (KM12) | GI50 (SK-MEL-28) | GI50 (BT-549) | GI50 (UO-31) | GI50 (HCT-15) | GI50 (A498) | GI50 (NCI-H23) | GI50 (Hs-578T) |
| --- | --- | --- | --- | --- | --- | --- | --- | --- | --- | --- | --- | --- | --- | --- | --- | --- | --- | --- | --- | --- |
| COC(=O)CCCC(=O)C1=NN(c2ccc(Cl)cc2)Cc2ccccc2N1 | 27.3 µM (inactive) | 56.4 µM (inactive) | 54 µM (inactive) | > 100 µM (inactive) | > 100 µM (inactive) | > 100 µM (inactive) | > 100 µM (inactive) | > 100 µM (inactive) | 79.4 µM (inactive) | 96.4 µM (inactive) | > 100 µM (inactive) | > 100 µM (inactive) | > 100 µM (inactive) | > 100 µM (inactive) | > 100 µM (inactive) | > 100 µM (inactive) | 95.1 µM | 36.1 µM (inactive) | > 100 µM (inactive) | 68.4 µM (inactive) |
| CC(=O)Oc1ccc(N2C(=O)C3c4[nH]c5ccccc5c4C4CCC(C(C)(C)C)CC4C3C2=O)cc1 (configuration not stated) | 6.08 µM (inactive) | 3.84 µM (inactive) | 4.71 µM (inactive) | 3.7 µM (inactive) | 2.51 µM (inactive) | 2.28 µM (inactive) | 10 µM (inactive) | 2.68 µM (inactive) | 3.56 µM (inactive) | 3.13 µM (inactive) | 6.68 µM (inactive) | 5.01 µM (inactive) |  | 3.76 µM (inactive) | 4.02 µM (inactive) | 5.35 µM (inactive) | 4.07 µM | 4.11 µM (inactive) | 3.56 µM (inactive) | 2.31 µM (inactive) |
| COC(=O)c1nc2c3c(cccc3c1C(=O)OC)Nc1ccccc1-2 | 10.7 µM (inactive) |  | 28.1 µM (inactive) | 41.6 µM (inactive) | 40.7 µM (inactive) | 23.8 µM (inactive) | 43.8 µM (inactive) | 42.3 µM (inactive) | 17.8 µM (inactive) | 35.6 µM (inactive) | 53 µM (inactive) | 52.7 µM (inactive) | 28.2 µM (inactive) | 59.7 µM (inactive) | 43.2 µM (inactive) | 18.8 µM (inactive) |  | 36.6 µM (inactive) | 36 µM (inactive) | 26.7 µM (inactive) |
| C=C1C(=O)OC2C1C(OC(=O)/C(C)=C/C)CC(O)(CCl)C1C(O)C3OC3(C)C21O (configuration not stated) | 34.6 µM (inactive) | 13.2 µM (inactive) | 13.3 µM (inactive) | > 50 µM (inactive) | 13.4 µM (inactive) | > 50 µM (inactive) | 13.6 µM (inactive) | > 50 µM (inactive) | > 50 µM (inactive) | > 50 µM (inactive) | 16.1 µM (inactive) | > 50 µM (inactive) | > 50 µM (inactive) | > 50 µM (inactive) | 17.4 µM (inactive) |  | 17.1 µM | > 50 µM (inactive) | 34.5 µM (inactive) | > 50 µM (inactive) |
| C[C@@H]1CC[C@@]2(OC1)O[C@H]1C[C@H]3[C@@H]4CC[C@H]5C[C@@H](OC6OC(CO)C(OC7OC(CO)C(O)C(OC8OCC(O)C(O)C8O)C7OC7OC(CO)C(O)C(O)C7O)C(O)C6O)[C@H](O)C[C@]5(C)[C@H]4CC[C@]3(C)[C@H]1[C@@H]2C (some centres not stated) | 20 µM (inactive) | 2.97 µM (inactive) | 2.46 µM (inactive) | 2.42 µM (inactive) | 4.19 µM (inactive) | 1.76 µM (inactive) | 11.3 µM (inactive) | 12.3 µM (inactive) | 2.52 µM (inactive) | 0.855 µM (active) | 1.85 µM (inactive) | 2.69 µM (inactive) | 8 µM (inactive) | 15.4 µM (inactive) | 2.94 µM (inactive) | 4.52 µM (inactive) | 3.4 µM | 7.89 µM (inactive) | 2.11 µM (inactive) | 5.75 µM (inactive) |
| CC1=C(C(=O)N(C(C)C)C(C)C)CC(C(=O)N(C(C)C)C(C)C)=C(C)N1 | > 100 µM (inactive) | > 100 µM (inactive) | > 100 µM (inactive) | > 100 µM (inactive) | > 100 µM (inactive) | 54.1 µM (inactive) | > 100 µM (inactive) | > 100 µM (inactive) | > 100 µM (inactive) | > 100 µM (inactive) | > 100 µM (inactive) | > 100 µM (inactive) | > 100 µM (inactive) |  | > 100 µM (inactive) | > 100 µM (inactive) | > 100 µM | 35.8 µM (inactive) | > 100 µM (inactive) | > 100 µM (inactive) |
| NC(=O)/C=C/NC(=O)/C=N\O | > 100 µM (inactive) | > 100 µM (inactive) | > 100 µM (inactive) | > 100 µM (inactive) | > 100 µM (inactive) | > 100 µM (inactive) | > 100 µM (inactive) | > 100 µM (inactive) | > 100 µM (inactive) |  | > 100 µM (inactive) | > 100 µM (inactive) | > 100 µM (inactive) | > 100 µM (inactive) | > 100 µM (inactive) | > 100 µM (inactive) | > 100 µM | > 100 µM (inactive) |  | > 100 µM (inactive) |
| C/C(Cl)=N\OC(=O)Nc1ccc([N+](=O)[O-])cc1 | 22.2 µM (inactive) | 15.1 µM (inactive) | 2.49 µM (inactive) | 17.6 µM (inactive) | 2 µM (inactive) | 18.7 µM (inactive) | 1.92 µM (inactive) | 15.6 µM (inactive) | 17.6 µM (inactive) | 21.6 µM (inactive) | 2.36 µM (inactive) | 16.3 µM (inactive) | 15.5 µM (inactive) | 17.2 µM (inactive) | 23 µM (inactive) | 5.6 µM (inactive) | 14.1 µM | 15.3 µM (inactive) | 21.5 µM (inactive) | 25 µM (inactive) |
| C[C@]12CC[C@H]3[C@@H](CC[C@]4(O)C[C@@H](O)CC[C@]34/C=N/O)[C@@]1(O)CC[C@@H]2C1=COC(=O)C1 | 0.303 µM (active) | 0.154 µM (active) | 0.474 µM (active) | 0.0637 µM (active) | 0.191 µM (active) | 0.589 µM (active) | 0.0272 µM (active) | 0.251 µM (active) | 0.141 µM (active) | 0.0336 µM (active) | 0.258 µM (active) | 0.104 µM (active) | 0.318 µM (active) | 0.482 µM (active) | 0.0675 µM (active) | 0.112 µM (active) | 0.158 µM | 0.0929 µM (active) | 0.0644 µM (active) | 0.112 µM (active) |
| Cc1c[nH]c2c(O)cc3c(c12)[C@H](CCl)CN3C(=O)c1cc2cc(NC(=O)Nc3ccc4[nH]c(C(=O)N5C[C@@H](CCl)c6c5cc(O)c5[nH]cc(C)c65)cc4c3)ccc2[nH]1 [BIZELESIN] | 0.701 µM (active) | 2.62 µM (inactive) | 8.91 µM (inactive) | 3.65 µM (inactive) | 17.4 µM (inactive) | 26.5 µM (inactive) | 0.418 µM (active) | 0.00109 µM (active) | 0.071 µM (active) | 11 µM (inactive) | 0.00131 µM (active) | 1.24 µM (inactive) | 12.1 µM (inactive) | 14.6 µM (inactive) | 24.9 µM (inactive) | < 0.001 µM (active) |  | 0.904 µM (active) | 1.9 µM (inactive) | > 100 µM (inactive) |
